{
  "source": "patent US5336485A",
  "about": "“Method for protecting animals against tacrine induced cytotoxic injury using sterol compounds” (priority 1993, dated 1994)",
  "key": {"male Sprague-Dawley rats": {"tested_on": "male Sprague-Dawley rats", "assay": "THA-induced side effects in rats", "details": "100 mg/kg ip 20 h prior"}, "canine hepatocytes [1]": {"tested_on": "canine hepatocytes", "assay": "EMS-induced cytotoxicity in canine hepatocytes", "format": "cell-based", "details": "25 μM, 50 mM EMS"}, "L1210 leukemia cells": {"tested_on": "L1210 leukemia cells", "assay": "Doxorubicin in L1210 leukemia bearing CDF1 mice", "format": "in vivo, mouse", "details": "alpha-TS tris salt 100 mg/kg ip", "protocol": "The experiments were conducted in accordance with NCI Protocol 1,100. FIGS. 8a-d show the experimental results obtained when male CDF1 mice (n=6) received either vehicle only or 100mg/kg body weight i.p. dose of either alpha-TS or cholesteryl succinate 20 hours prior to DOX administration. FIGS. 8a-d respectively show the results obtained when the mice received 10, 15, 20, and 25 mg DOX/kg body weight. […] FIGS. 9a-d show the experimental results obtained when male CDF1 mice ([…]) were injected (i.p.) with 10^6 murine L1210 leukemia cells followed immediately by an injection of alpha-TS tris salt (100 mg/kg, i.p.) or saline injection (vehicle), and twenty hours later (Day=0) each mouse in three of the groups was i.p. injected with 15, 20, or 25 mg DOX/kg body weight ([…]). Survival was monitored for twenty days."}, "skin lesion": {"tested_on": "skin lesion", "assay": "Topical treatment of dermal injury in a human", "format": "in vivo", "protocol": "In one case, the middle knuckle of the left hand of a person was injured by the removal of a small wart with liquid nitrogen. Two months following the liquid nitrogen insult, the injured area (approximately 1 cm in diameter) was characterized by scar tissue raised several millimeters above the surrounding normal skin. At this time, the lesion was treated by wetting the injured area with alpha-TS dissolved in dimethyl sulfoxide (100mg/ml), daily for a period of two weeks. […] One year following the last alpha-TS treatment, the once injured area remains indistinguishable from the surrounding normal tissue. In another case, a person's lip was severely sunburned. Topical lip cremes and antibiotic cremes were used for several weeks following the ultraviolet insult with minimal therapeutic benefit. At this time, the lesion was treated by wetting the injured area with alpha-TS dissolved in dimethyl sulfoxide (100mg/ml) daily for a period of 1 week. […] In another case, the arch of the left foot of a person was inflamed and blistered from contact dermatitis or stress dermatitis. Six months after unsuccessful treatment on this lesion with betamethasone, the injured area was treated by wetting the injured area with alpha-TS dissolved in dimethyl sulfoxide (100 mg/ml) twice daily for a period of 1 week. […] It is also evident from these cases that alpha-TS is the active component that promotes wound healing and prevents scar formation."}, "[2]": {"tested_on": "platelet phospholipase A2", "details": "cited from earlier work"}, "epidermoid carcinomas": {"tested_on": "epidermoid carcinomas", "details": "local administration; cited from earlier work"}, "human prostate cells": {"tested_on": "human prostate cells", "details": "10 μM; cited from earlier work"}, "rat hepatocytes": {"tested_on": "rat hepatocytes", "assay": "Cellular alpha-tocopherol and tocopherol ester content of rat hepatocytes", "details": "for Hepatocyte Concentration Alpha-T / Hepatocyte Concentration Alpha-TS: EMS 3 h", "protocol": "At each time-point, rapid separation of viable from non-viable hepatocytes and medium was accomplished by the dibutyl phthalate centrifugation method. Cell viability was monitored hourly by measuring LDH leakage with a Cobas Analyzer and intracellular [K^+ ]with a flame photometer. LDH was routinely measured in the medium while intracellular K^+ was measured in the 10% perchloric acid lysate of viable cells. Lipid peroxidation was determined by measuring TBA reactants in the medium. […] The samples were diluted with 0.3 ml 1% ascorbate in 0.1 M SDS, 0.4 ml ethanol, sonicated and extracted once with 0.8 ml hexane. Next, the hexane extract was evaporated to dryness with N2, the residue dissolved in 2.5% ascorbate in methanol (1 ml) and analyzed (100 μl) by high-performance liquid chromatograph (HPLC). […] The mobile phase, 95% MeOH was run isocratically and the HPLC retention times for delta and alpha-tocopherol were approximately eleven and sixteen minutes, respectively. […] Following the addition of 0.2 ml 4 M HC1, the neutralized KOH-MeOH extracted with 0.8 ml hexane. […] A standard curve for each tocopherol congener was run with every assay. […] Only viable cells were monitored in the laboratory procedures.\nThe hepatocytes were subsequently exposed to 50mM EMS for three hours."}, "[3]": {"tested_on": "mouse melanoma cells B-16", "details": "cited from earlier work"}, "canine hepatocytes [4]": {"tested_on": "canine hepatocytes", "assay": "Intracellular K+ of canine hepatocytes exposed to EMS", "format": "cell-based", "details": "25 μM, 50 mM EMS", "text": "Medzhradsky, Biochem. Med. 13:164 (1975), has noted that the cell's ability to maintain its intracellular concentration of potassium (K^+) is an excellent indicator of the metabolic integrity of the cell. A concentration gradient exists for K^+ with greater concentrations found intracellularly. To maintain this gradient, the cell is dependent on the action of the Na^+ -K^+ ATPase pump and an adequate supply of ATP. As cellular ATP levels decline, the ATPase pump is unable to maintain the gradient resulting in the loss of intracellular K^+ by equilibration with the extracellular space. Because the maintenance of cellular metabolic processes is essential to the continual repair and survival of cells, organ systems, and organisms, the effect of alpha-TS on the metabolic integrity of rat liver cells during a toxic insult was investigated by measuring intracellular K^+ levels. FIGS. 2a-2b show the response of rat and canine hepatocytes, respectively, exposed to 50 mM EMS. […] The response curves shown in FIGS. 2a and 2b indicate that alpha-TS under physiological conditions can maintain the metabolic integrity of animal hepatocytes during a toxic insult.\nOnly viable cells were monitored in the laboratory procedures."}, "variety of cell types": {"tested_on": "variety of cell types", "details": "cited from earlier work"}, "[5]": {"details": "50 mM EMS + 25 μM alpha-TS + 100 μM Bis-(p-nitrophenyl) phosphate"}, "[6]": {"details": "50 mM EMS + 25 μM alpha-TS + 100 μM Diethyl p-nitrophenyl phosphate"}},
  "note": "Where a name gives a salt, the structure may show the parent alone.",
  "data": [
    {"smiles": "CC(C)CCC[C@@H](C)[C@H]1CC[C@H]2[C@@H]3CC=C4C[C@@H](OC(=O)CCC(=O)O)CC[C@]4(C)[C@H]3CC[C@]12C", "note": "[Cholesteryl Succinate tris salt]", "values": [
      {"measurement": "Survival", "setting": "male Sprague-Dawley rats; THA 30.0 mg/kg (vehicle 100%)", "result": 40, "unit": "%"},
      {"measurement": "Salivation", "setting": "male Sprague-Dawley rats; THA 30.0 mg/kg, 0 to 4 scale (vehicle 2.2 ± 0.4)", "result": "4.0 ± 0.0"},
      {"measurement": "Tremors", "setting": "male Sprague-Dawley rats; THA 30.0 mg/kg, 0 to 4 scale (vehicle 3.0 ± 0.0)", "result": "4.0 ± 0.0"}
    ]},
    {"smiles": "Cc1c(C)c2c(c(C)c1OC(=O)CCC(=O)O)CC[C@@](C)(CCC[C@H](C)CCC[C@H](C)CCCC(C)C)O2", "note": "[alpha-TS, d-alpha-tocopheryl succinate]", "values": [
      {"measurement": "protection from lethal effects of EMS", "setting": "canine hepatocytes [1]", "result": "protected both rat and canine hepatocytes from the lethal effects"},
      {"measurement": "survival of DOX treated tumor bearing mice (FIG. 9b)", "setting": "L1210 leukemia cells; DOX 10 mg/kg", "result": "no effect on the survival of DOX treated animals"},
      {"measurement": "survival of tumor bearing mice at higher DOX", "setting": "L1210 leukemia cells; DOX 15 and 25 mg/kg", "result": "significant protection from DOX"},
      {"measurement": "healing of sunburned lip", "setting": "skin lesion; topical 100 mg/ml in DMSO daily, 1 week", "result": "rapid healing of the lip without scar formation"},
      {"measurement": "healing of injured area (liquid nitrogen)", "setting": "skin lesion; topical 100 mg/ml in DMSO daily, two weeks", "result": "rapid healing of the injured area with the elimination of scar tissue"},
      {"measurement": "healing of foot lesion (dermatitis)", "setting": "skin lesion; topical 100 mg/ml in DMSO twice daily, 1 week", "result": "rapid healing of the foot lesion with the dissolution of both inflammation and blisters"},
      {"measurement": "inhibition of platelet phospholipase A2 activity", "setting": "[2]", "result": "inhibits platelet phospholipase A2 activity"},
      {"measurement": "tumor regression", "setting": "epidermoid carcinomas", "result": "dramatic regression"},
      {"measurement": "tumor cell growth", "setting": "human prostate cells", "result": "inhibits tumor cell growth"},
      {"measurement": "cellular alpha-TS content", "setting": "rat hepatocytes; 0.5 μM", "result": "approximately 0.025 nmoles/10^6 cells"},
      {"measurement": "Hepatocyte Concentration Alpha-T", "setting": "rat hepatocytes; 2.0 μM", "result": "0.4 ± 0.1", "unit": "nmol/10^6 cells"},
      {"measurement": "Hepatocyte Concentration Alpha-TS", "setting": "rat hepatocytes; 2.0 μM", "result": "0.2 ± 0.1", "unit": "nmol/10^6 cells"},
      {"measurement": "Hepatocyte Concentration Alpha-T", "setting": "rat hepatocytes; 10 μM", "result": "0.8 ± 0.1", "unit": "nmol/10^6 cells"},
      {"measurement": "Hepatocyte Concentration Alpha-TS", "setting": "rat hepatocytes; 10 μM", "result": "0.7 ± 0.1", "unit": "nmol/10^6 cells"},
      {"measurement": "cellular accumulation rate of alpha-TS", "setting": "rat hepatocytes; 25 μM dose", "result": 1.65, "unit": "nmol/10^6 cells/hr"},
      {"measurement": "cellular release rate of succinate (as measured by alpha-tocopherol release)", "setting": "rat hepatocytes; 25 μM dose", "result": 0.65, "unit": "nmol/10^6 cells/hr"},
      {"measurement": "Hepatocyte Concentration Alpha-T", "setting": "rat hepatocytes; 25 μM", "result": "0.9 ± 0.1", "unit": "nmol/10^6 cells"},
      {"measurement": "Hepatocyte Concentration Alpha-TS", "setting": "rat hepatocytes; 25 μM", "result": "2.5 ± 0.1", "unit": "nmol/10^6 cells"},
      {"measurement": "Cellular Tocopherol ester", "setting": "rat hepatocytes; 25 μM, Table 2", "result": 2.6, "unit": "nmoles/10^6 cells"},
      {"measurement": "Cellular alpha-T", "setting": "rat hepatocytes; 25 μM, Table 2", "result": 0.7, "unit": "nmoles/10^6 cells"},
      {"measurement": "Hepatocyte Concentration Alpha-T", "setting": "rat hepatocytes; 250 μM", "result": "0.9 ± 0.1", "unit": "nmol/10^6 cells"},
      {"measurement": "Hepatocyte Concentration Alpha-TS", "setting": "rat hepatocytes; 250 μM", "result": "7.6 ± 1.7", "unit": "nmol/10^6 cells"},
      {"measurement": "Cellular alpha-T", "setting": "rat hepatocytes; 50 mM EMS + 25 μM alpha-TS", "result": ".81 ± .05 nmoles/10^6 cells"},
      {"measurement": "Cellular alpha-TS", "setting": "rat hepatocytes; 50 mM EMS + 25 μM alpha-TS", "result": "2.73 ± .67 nmoles/10^6 cells"},
      {"measurement": "Cellular alpha-T", "setting": "rat hepatocytes; [5]", "result": ".20 ± .05 nmoles/10^6 cells"},
      {"measurement": "Cellular alpha-TS", "setting": "rat hepatocytes; [5]", "result": "2.61 ± .61 nmoles/10^6 cells"},
      {"measurement": "Cellular alpha-T", "setting": "rat hepatocytes; [6]", "result": ".19 ± .05 nmoles/10^6 cells"},
      {"measurement": "Cellular alpha-TS", "setting": "rat hepatocytes; [6]", "result": "2.56 ± .24 nmoles/10^6 cells"},
      {"measurement": "Hepatocyte Concentration Alpha-T", "setting": "rat hepatocytes; .5 μM", "result": "0.2 ± 0.1", "unit": "nmol/10^6 cells"},
      {"measurement": "tumor cell growth", "setting": "[3]; 10 μM", "result": "inhibits tumor cell growth"},
      {"measurement": "morphological differentiation", "setting": "[3]", "result": "induce morphological differentiation"},
      {"measurement": "intracellular K+ during EMS insult", "setting": "canine hepatocytes [4]", "result": "no loss of intracellular K+"},
      {"measurement": "protection against carcinogenic effects of radiation and cancer causing chemicals", "setting": "variety of cell types", "result": "protects a variety of cell types against the carcinogenic effects of radiation and cancer causing chemicals"}
    ]}
  ]
}
